Laboratory results published in article PMC9964268, “A Novel, Highly Potent NADPH-Dependent Cytochrome P450 Reductase from Waste Liza klunzingeri Liver” (Marine Drugs, 2023).

Tested on: T1, LkCPR; NADPH-dependent cytochrome P450 reductase from Liza klunzingeri liver
T1 construct: gene POR; native, purified from liver microsomes (detergent-solubilised; DEAE-Sepharose twice, 2',5'-ADP Sepharose 4B); about 75 kDa, monomer
Assay: cytochrome c reduction at […] nm, Michaelis-Menten fit
Assay type: biochemical, Planiliza klunzingeri
Conditions: co-substrate cytochrome c at saturation (50 µM); potassium phosphate pH 7.5; room temperature; apparent Km

- Km: 7.26 ± 0.2 µM
Structure (SMILES): NC(=O)C1=CN([C@@H]2O[C@H](COP(=O)(O)OP(=O)(O)OC[C@H]3O[C@@H](n4cnc5c(N)ncnc54)[C@H](OP(=O)(O)O)[C@@H]3O)[C@@H](O)[C@H]2O)C=CC1 [NADPH]
